Measurements as given in patent publication US10596270B2, “Anti-folate receptor antibody conjugates, compositions comprising anti-folate receptor antibody conjugates, and methods of making and using anti-folate receptor antibody conjugates” (Sutro Biopharma, Inc., priority 2017, dated 2020).
Where a chain is given by its changes, count along the chain named. Where two headings read alike, the source gives them in different places. Square brackets hold non-standard residues; d marks the D form. Peptide text beside a SMILES is read from it. * marks the point of attachment. Dolaproine = CO[C@@H]([C@@H]1CCCN1)[C@@H](C)C(=O)O; Dil = CC[C@H](C)[C@H](NC)[C@@H](CC(=O)O)OC; X1 = C[C@@H](N*)[C@@H](O)c1ccccc1; NMeV = CN[C@H](C(=O)O)C(C)C

Tests used:
[1] = test system: A549 cells; test: In vitro cell killing (ADCs, free drugs), FolRα-negative A549 cells; format: cell-based; details: for Span: A549 cells, Table 26, NK = No Killing; for EC50: Homo sapiens, A549
From the text: Cytotoxic activities of the two ADC molecules were compared in the presence of excess un-conjugated “naked” antibody as competitior, on cells that were positive FolRα expression (Igrov1 and OVCAR3) and on cells that were negative for FolRα expression (A549).

[2] = test system: Igrov1 cells; test: In vitro cell killing (ADCs, free drugs), Igrov1 cells; format: cell-based; details: for EC50: Homo sapiens, IGROV-1; for Span: Igrov1 cells, Table 26
Experimental: The candidate antibody-drug conjugates were tested in cell killing on FolRα-expressing cells, including KB, Igrov1, HeLa and JEG3.

[3] = test system: MES-SA/MX2 cells (PgP over-expressing); test: Free drug cell killing on PgP over-expressing MES-SA/MX2 cells with or without PgP inhibitor GF120918; format: cell-based; details: for change in cell killing EC50 in the presence and absence of PgP inhibitor GF120918: GF120918 5 μM
From the text: (§1) To evaluate if free drug (I) is specifically a substrate of P-glycoprotein (PgP), which is responsible for cisplatin-resistance in some of the ovarian cancer cell lines (Stordal et al. 2012. PLoS One 7(7)), the free drug cell killing activities were investigated on PgP over-expressing MES-SA/MX2 cell line and the parental MES-SA cells. The cell killing activity of free drug (I), free drug (II) and a control free drug (MMAE, designated “III”) on the PgP-overexpressing MES-SA/MX2 cells were reduced by different levels compared to their activity on parental MES-SA cells. The MES-SA/MX2 cells were also treated with PgP inhibitor GF120918 (5 μM) to further investigate if the observed cell killing reduction is contributed by the presence of PgP on the cell surface.

[4] = test system: P-glycoprotein (PgP); test: as above; format: cell-based; details: human, MES-SA/MX2 cells (PgP over-expressing)
From the text: as §1

[5] = Pharmacokinetics of free drugs in Sprague-Dawley rats; format: in vivo, rat; details: for C0 / Cmax / AUC(0-t) / AUC(0-inf) / clearance / half-life / Vd: rat, blood, female Sprague-Dawley rats; for AUC(0-t): read-out: AUC0-last ± SE; for half-life: read-out: Terminal t1/2 (converted); for Vd: read-out: VSS
Experimental: (§2) Blood samples were collected at […], 1, 2, 8, 24, 32, 48, and 72 hour post-dose. Levels of free drug (I) and (II) were measured by LC-MS/MS and non-compartmental pharmacokinetic analysis was conducted using Phoenix WinNonlin Version 6.4 (Pharsight Corporation). The PK of free drug (I) could not be estimated due to the fact that concentrations of (I) increased from 2 to 8 hours and were undetectable thereafter.

[6] = test system: MES-SA cells; test: Free drug cell killing on parental MES-SA cells; format: cell-based; details: MEA-SA (parental) cells, No GF120918
From the text: as §1

[7] = Body weight of rats given free drugs; format: in vivo, rat; details: free drug (I) 0.4 and 1 mg/kg; free drug (II) 0.4 mg/kg; IV bolus
Experimental: as §2, with “To assess the pharmacokinetic profile of free drug (I), female Sprague-Dawley rats (mean body weight 250 g) were given either a 0.4 mg/kg or 1 mg/kg dose by IV bolus administration (N=three animal per dose level) via an indwelling jugular vein catheter. Blood” for “Blood”

[8] = test system: cell line tested; test: Free drug in vitro cytotoxicity, various cell lines; format: cell-based; details: for cytotoxic activity of released free drugs: in words
[9] = test system: MC38-hFolRα tumors; test: MC38-hFOLR1 tumor model, combination with Avelumab; format: in vivo; details: ADC Molecule 4 10 or 15 mg/kg once IV; Avelumab q3dx3 intraperitoneally
[10] = test system: FOLR1-positive Igrov1 cells; test: Secondary antibody cell killing assay, Igrov1 cells; format: cell-based; details: Table 9; for EC50: read-out: Igrov 2° Antibody Cell Killing, Nb-SC239 EC50
From the text: FOLR1-positive KB cells were obtained from ATCC, and FOLR1-positive Igrov1 cells were obtained from NIH. The cells were maintained in Ham's F-12: high glucose DMEM (50:50) (Corning, Cellgro-Mediatech) supplemented with 10% heat-inactivated fetal bovine serum (Corning, Cellgro-Mediatech, Manassas, Va.), 1% Penicillin/Streptomycin (Corning, Cellgro-Mediatech, Manassas, Va.) and 2 mmol/L-glutamax (Thermo Fisher Scientific, Waltham, Mass.). Adherent cells were washed twice with calcium and magnesium-free Hanks Balanced Salt Solution (HBSS), harvested with HYQ® TASE™ (Hyclone; Thermo Fisher Scientific, Waltham, Mass.) and counted by the Vi-CELL Cell Viability Analyzers (Beckman Coulter, Indianapolis, Ind.). A total of 625 cells were seeded in each well of a 384-well flat bottom white polystyrene plate. Lead antibodies were formulated at 4-fold starting concentration in the cell culture medium and filtered through MultiScreenHTS 96-Well Filter Plates (Millipore; Billerica, Mass.). […] Assay plates were cultured at 37° C. in a CO2 incubator for 120 hrs before assay. For cell viability measurement, 30 μL of Cell Titer-Glo® reagent (Promega Corp. Madison, Wis.) was added into each well, and plates were processed as per product instructions. Relative luminescence was measured on an ENVISION® plate reader (Perkin-Elmer; Waltham, Mass.). Relative luminescence readings were converted to percent viability using untreated cells as controls. Data was fitted with non-linear regression analysis, using a log(inhibitor) vs. response-variable slope, 4 parameter fit with GraphPad Prism (GraphPad v 5.0, Software; San Diego, Calif.). Data was expressed as relative cell viability (ATP content) % vs. dose of antibody.

[11] = biological target: T1, human FOLR1-HIS (Homo sapiens, UniProt P15328); test: Biacore kinetics (surface plasmon resonance); format: binding; details: humanized 6D1 (2060) antibodies, Table 9
T1 construct: HIS
Experimental: Anti-Fc polyclonal antibodies were immobilized onto a CM5 chip (GE Life Sciences) using amine coupling chemistry (from Amine Coupling Kit, GE Life Sciences). The immobilization steps were carried out at a flow rate of 25 μL/min in 1×HBS-EP+ buffer (GE Life Sciences; 10× Stock diluted before use). The sensor surfaces were activated for 7 min with a mixture of N-hydroxysuccinimide (NHS, 0.05 M) and 1-ethyl-3-(3-dimethylaminopropyl)-carbodiimide (EDC, 0.2 M). The anti-Fc polyclonal antibodies were injected over all 4 flow cells at a concentration of […]/mL in 10 mM sodium acetate, pH 4.5, for 7 min. Ethanolamine (1 M, pH 8.5) was injected for 7 min to block any remaining activated groups. An average of 12,000 response units (RU) of capture antibody was immobilized on each flow cell.
Off-rate and kinetic binding experiments were performed at 25° C. using 1×HBS-EP+ buffer. Test and control antibodies were injected over the anti-Fc surface at concentrations of 5-10 μg/mL for 12 seconds at a flow rate of 10 μL/min on flow cells 2, 3 and 4, followed by a buffer wash for 30 seconds at the same flow rate. Kinetic characterization of antibody samples was carried out with a single concentration of antigen (for off-rate ranking) or a 1:2 dilution series of antigen (for kinetic characterization) and 1 injection of 0 nM antigen. […] Between each ligand capture and analyte binding cycle, regeneration was carried out using 2 injections of 10 mM glycine pH 2.0 for 30 seconds at 30 μL/min, followed by a 30 second buffer wash step.
The data were fit with the Biacore T200 Evaluation software, using a 1:1 Langmuir binding model. KD (affinity, nM) was determined as a ratio of the kinetic rate constants calculated from the fits of the association and dissociation phases.

[12] = MEA-SA/MX2 cells (PgP over-expressing), No GF120918
[13] = MEA-SA/MX2 cells, with PgP inhibitor GF120918 (5 μM)
[14] = with GF120918 (5 μM), MEA-SA/MX2 cells, with PgP inhibitor GF120918 (5 μM)

T1 sequence (P15328 25-234): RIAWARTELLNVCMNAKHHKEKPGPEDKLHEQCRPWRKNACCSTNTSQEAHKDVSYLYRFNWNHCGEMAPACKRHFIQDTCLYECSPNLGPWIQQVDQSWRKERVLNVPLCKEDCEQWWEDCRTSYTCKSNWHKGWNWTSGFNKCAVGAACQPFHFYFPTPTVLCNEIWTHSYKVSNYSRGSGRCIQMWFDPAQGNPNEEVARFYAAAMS

Molecule CN[C@H](C(=O)N[C@H](C(=O)N(C)[C@H](/C=C(\C)C(=O)O)C(C)C)C(C)(C)C)C(C)(C)c1cccc(N)c1 [free drug (I)] has a Span [1] of 81%, an EC50 [1] of 11 nM and an EC50 [2] of 2.4 nM. For the same molecule, the Span [2] was 92%, the “change in cell killing EC50 in the presence and absence of PgP inhibitor GF120918” value (from here on “change … of PgP inhibitor GF120918”) [3] was 8 fold and the Span [3, 12] was 100%. The Span [3, 13] was 99%, the EC50 [4, 14] was 6.4 nM and the EC50 [4, 12] was 50 nM. The “plasma level of free drug after dosing” value ([5]; 0.4 or 1 mg/kg IV bolus, data not shown) was “undetectable at 24 hours post dose”, the “clearance relative to the other free drug” value ([5]; IV bolus) was “more rapid than that of free drug (II)” and the “PK of free drug (I) in rat vs. free drug (II)” value ([5]; Table 28) was “Free drug (I) has faster clearance”. The C0 ([5]; IV bolus, dose level 0.1 mg/kg) was 6.81 ng/mL, the Cmax ([5]; IV bolus, dose level 0.1 mg/kg) was 5.82 ± 0.69 ng/mL and the AUC(0-t) ([5]; IV bolus, dose level 0.1 mg/kg) was 11 ± 2.1 ng·h/mL. For the same molecule, the C0 ([5]; IV bolus, dose level 0.4 mg/kg) was 15.5 ng/mL, the Cmax ([5]; IV bolus, dose level 0.4 mg/kg) was 12.8 ± 2.1 ng/mL and the AUC(0-t) ([5]; IV bolus, dose level 0.4 mg/kg) was 23.9 ± 2.6 ng·h/mL. For the same molecule, the EC50 ([6]; Homo sapiens, MES-SA) was 6 nM, the Span [6] was 100% and the “body weight of the animals” value [7] was “did not have an effect on the body weight”. The EC50 ([8]; depending on the cell line tested, read-out: cytotoxic activity in vitro EC50) was 0.5 to 20 nM and the “cytotoxic activity of released free drugs” value [8] was “comparable cytotoxic activity”.

Molecule COc1cc2cc(c1Cl)N(C)C(=O)C[C@H](OC(=O)[C@H](C)N(C)C(=O)CCC(C)(C)S)[C@]1(C)O[C@H]1[C@H](C)[C@@H]1C[C@@](O)(NC(=O)O1)[C@H](OC)/C=C/C=C(/C)C2 [free drug (II)] has a Span [1] of 81%, an EC50 [1] of 7.7 nM and an EC50 [2] of 4.9 nM. The Span [2] was 90%, the “change … of PgP inhibitor GF120918” value [3] was 17 fold and the Span [3, 12] was 100%. For the same molecule, the Span [3, 13] was 98%, the EC50 [4, 14] was 1.7 nM and the EC50 [4, 12] was 28 nM. It also gave an AUC(0-inf) ([5]; IV bolus, dose level 0.1 mg/kg) of 129 ng·h/mL, a C0 ([5]; IV bolus, dose level 0.1 mg/kg) of 10.7 ng/mL and a Cmax ([5]; IV bolus, dose level 0.1 mg/kg) of 9.31 ± 2.19 ng/mL. It also gave a clearance ([5]; IV bolus, dose level 0.1 mg/kg) of 12.9 mL/min/kg, an AUC(0-t) ([5]; IV bolus, dose level 0.1 mg/kg) of 96.9 ± 11 ng·h/mL and a half-life ([5]; IV bolus, dose level 0.1 mg/kg) of 22.4 h. For the same molecule, the Vd ([5]; IV bolus, dose level 0.1 mg/kg) was 15.8 L/kg, the AUC(0-inf) ([5]; IV bolus, dose level 0.4 mg/kg) was 242 ng·h/mL and the C0 ([5]; IV bolus, dose level 0.4 mg/kg) was 62.5 ng/mL. It also gave a Cmax ([5]; IV bolus, dose level 0.4 mg/kg) of 53.3 ± 19 ng/mL, a clearance ([5]; IV bolus, dose level 0.4 mg/kg) of 27.7 mL/min/kg and an AUC(0-t) ([5]; IV bolus, dose level 0.4 mg/kg) of 211 ± 70 ng·h/mL. For the same molecule, the half-life ([5]; IV bolus, dose level 0.4 mg/kg) was 44.3 h, the Vd ([5]; IV bolus, dose level 0.4 mg/kg) was 44.1 L/kg and the EC50 ([6]; Homo sapiens, MES-SA) was 1.9 nM. The Span [6] was 100%, the “body weight of the animals” value [7] was “progressive body weight loss” and the “cytotoxic activity of released free drugs” value [8] was “comparable cytotoxic activity”.

In the case of CC[C@H](C)[C@@H]([C@@H](CC(=O)N1CCC[C@H]1[C@H](OC)[C@@H](C)C(=O)N[C@H](C)[C@@H](O)c1ccccc1)OC)N(C)C(=O)[C@@H](NC(=O)[C@@H](NC)C(C)C)C(C)C [free drug (III), MMAE] (H-[NMeV]V[Dil][Dolaproine]-X1), the “change … of PgP inhibitor GF120918” value [3] is reported as 111 fold, the EC50 [3, 12] is reported as 111 nM and the Span [3, 12] is reported as 100%. It also gave an EC50 [3, 13] of 1 nM, a Span [3, 13] of 99% and an EC50 [6] of 0.75 nM. For the same molecule, the Span [6] was 100%.

For Avelumab, the initial tumor response [9] was “tumor stasis until approximately day 7”.

B1: SRP2060-E10: affinity-matured humanized 6D1; VH SEQ ID NO 363; VL H6D1-LC4 SEQ ID NO 368 (antibody, V domains shown)
VH: EVQLLESGGGLVQPGGSLRLSCAFSGFSLSTFGMGVGWVRQAPGKGLEWVSHIWWDDDKYYHPALKGRFTISKDNSKNTVYLQMNSLRAEDTAVYYCGRNHFPHYYGSSHWYFNVWGQGTTVTVSS
VL: EIVMTQSPATLSLSPGERATLSCKASQDINSYLSWYQQKPGQAPRLLIYRANRLVDGIPARFSGSGSGTDYTLTISSLEPEDFAVYYCLQYDEFPYTFGGGTKVEIK
modifications: Synthetic SRP2060-E10, VH; Synthetic H6D1-LC4, VL
With B1 the “Igrov 2° Antibody Cell Killing, Nb-SC239 span” value (“Igrov 2° Antibody Cell Killing” for short) [10] was 68%, the EC50 [10] was 0.061 nM and the Biacore kinetics ka [11] was 582000 M⁻¹ s⁻¹. For the same molecule, the Biacore kinetics kd [11] was 0.0012 s⁻¹.

B2: SRP2060-B01 (antibody, V domains shown)
VH: B1 VH with F24L, P43T, Y81H
VL: DIQMTQSPSTLSASVGDRVTITCKASQDINSYLSWYQQKPGKAPKLLIYRANRLVDGVPSRFSGSGSGTEFTLTISSLQPDDFATYYCLQYDEFPYTFGGGTKVEIK
For B2, the “Igrov 2° Antibody Cell Killing” value [10] was 76%, the EC50 [10] was 0.045 nM and the Biacore kinetics ka [11] was 561000 M⁻¹ s⁻¹. The Biacore kinetics kd [11] was 0.00147 s⁻¹.

B3: SRP2060-E05: affinity-matured humanized 6D1; VH SEQ ID NO 364; VL H6D1-LC4 SEQ ID NO 368 (antibody, V domains shown)
VH: B1 VH with I71V
VL: B1 VL
modifications: Synthetic SRP2060-E05, VH; Synthetic H6D1-LC4, VL
With B3 the “Igrov 2° Antibody Cell Killing” value [10] was 71%, the EC50 [10] was 0.22 nM and the Biacore kinetics ka [11] was 541000 M⁻¹ s⁻¹. For the same molecule, the Biacore kinetics kd [11] was 0.00158 s⁻¹.

B4: SRP2060-A06 (antibody, V domains shown)
VH: B1 VH with S51G, H62Y, N114D
VL: B2 VL
In the case of B4, the “Igrov 2° Antibody Cell Killing” value [10] is reported as 66%, the EC50 [10] is reported as 0.013 nM and the Biacore kinetics ka [11] is reported as 547000 M⁻¹ s⁻¹. It also gave a Biacore kinetics kd [11] of 0.00729 s⁻¹.
